# Measurements as given in ChEMBL document CHEMBL1201862, “PubChem BioAssay data set” (2004).
# Calls of active or inactive are those of the source.
# Legend:
# Leucine aminopeptidase = molecular target: T1, Leucine aminopeptidase (Plasmodium falciparum 3D7, UniProt Q8IL11); experiment: P. falciparum M17LAP inhibitors, primary screen, biochemical, fluorogenic H-Leu-NHMec substrate, 1536-well (AID 1619); assay type: functional
# T1 sequence (Q8IL11 whole entry): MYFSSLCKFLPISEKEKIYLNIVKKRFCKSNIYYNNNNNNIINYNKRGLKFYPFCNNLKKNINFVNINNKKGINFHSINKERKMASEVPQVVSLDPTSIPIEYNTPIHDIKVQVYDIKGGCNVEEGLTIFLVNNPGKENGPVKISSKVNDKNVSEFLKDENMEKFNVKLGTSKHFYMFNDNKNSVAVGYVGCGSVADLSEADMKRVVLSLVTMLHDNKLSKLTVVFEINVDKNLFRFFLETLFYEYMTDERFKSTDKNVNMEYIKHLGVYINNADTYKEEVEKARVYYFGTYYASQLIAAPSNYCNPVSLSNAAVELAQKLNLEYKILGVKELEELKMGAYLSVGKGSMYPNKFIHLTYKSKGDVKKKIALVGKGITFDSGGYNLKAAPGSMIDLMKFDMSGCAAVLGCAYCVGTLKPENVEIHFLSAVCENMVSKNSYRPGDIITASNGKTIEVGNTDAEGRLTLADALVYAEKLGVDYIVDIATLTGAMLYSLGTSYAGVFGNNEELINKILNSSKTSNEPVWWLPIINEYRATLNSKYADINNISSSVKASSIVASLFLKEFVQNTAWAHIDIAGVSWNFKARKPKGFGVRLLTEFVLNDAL
# [1] = molecular target: T2, Polyadenylate-binding protein 1 (Homo sapiens, UniProt P11940); experiment: PABP1 MLLE–PAM2 interaction inhibitors, dose response, miRNA deadenylation inhibitor project, biochemical, fluorescence polarization, Cy5-PAM2 peptide, secondary (AID 602260); assay type: functional; conditions: read-out: IC50_Mean
# T2 sequence (P11940 whole entry): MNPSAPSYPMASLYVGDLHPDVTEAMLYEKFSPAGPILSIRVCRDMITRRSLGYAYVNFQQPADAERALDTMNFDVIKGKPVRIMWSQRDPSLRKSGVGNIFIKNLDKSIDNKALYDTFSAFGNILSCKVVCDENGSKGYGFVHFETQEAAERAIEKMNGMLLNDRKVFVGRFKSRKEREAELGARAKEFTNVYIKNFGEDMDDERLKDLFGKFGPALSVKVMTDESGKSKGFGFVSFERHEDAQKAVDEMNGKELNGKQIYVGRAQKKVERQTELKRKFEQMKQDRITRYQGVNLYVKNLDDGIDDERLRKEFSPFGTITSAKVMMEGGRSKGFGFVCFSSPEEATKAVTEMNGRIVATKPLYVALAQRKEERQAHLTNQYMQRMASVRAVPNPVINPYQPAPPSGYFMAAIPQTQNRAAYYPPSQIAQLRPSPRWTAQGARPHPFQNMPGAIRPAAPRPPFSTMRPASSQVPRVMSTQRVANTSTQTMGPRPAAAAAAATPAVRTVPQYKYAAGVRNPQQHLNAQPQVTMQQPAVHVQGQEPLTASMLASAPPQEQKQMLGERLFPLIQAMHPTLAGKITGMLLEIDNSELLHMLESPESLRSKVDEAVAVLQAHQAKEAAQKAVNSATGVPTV
# [2] = molecular target: T2, Polyadenylate-binding protein 1; experiment: PABP1 MLLE–PAM2 binding inhibitor potency, dose response, biochemical, fluorescence polarization, FITC-PAM2 peptide (AID 602259); assay type: functional; conditions: read-out: IC50_Mean
# [3] = inhibitors of HIV Env-driven cell fusion, dose response, cherry-pick (AID 652057); assay type: functional, cell-based
# [4] = inhibitors of clade B AD8 Env fusion, dose response, cell-based, cherry-pick (AID 652062); assay type: functional;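 further: luciferase signal from cell-cell fusion driven by HIV-1 clade B AD8 Env; potency is for inhibitors of fusion seen as a drop in luminescence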
# [5] = inhibitors of firefly luciferase expression or activity, dose response, H4 neuroglioma cells, luminescence (AID 1990); assay type: functional, cell-based
# [6] = inhibitors of SNCA 5'UTR-driven reporter translation, confirmation, H4 neuroglioma cells, luminescence (AID 1988); assay type: functional, cell-based
# [7] = Luminescence Cell-Based Dose Response HTS to Identify Inhibitors of 5'UTR Stem-Loop Driven Prion Protein mRNA Translation in H4 Neuroglioblastoma Cells. [Related pubchem assays: 1827 (Project Summary), 1813 (Primary HTS)]; assay type: functional
# [8] = molecular target: Induced myeloid leukemia cell differentiation protein Mcl-1 (Homo sapiens, UniProt Q07820); assay type: functional
# Sequence of Induced myeloid leukemia cell differentiation protein Mcl-1 (Q07820 whole entry): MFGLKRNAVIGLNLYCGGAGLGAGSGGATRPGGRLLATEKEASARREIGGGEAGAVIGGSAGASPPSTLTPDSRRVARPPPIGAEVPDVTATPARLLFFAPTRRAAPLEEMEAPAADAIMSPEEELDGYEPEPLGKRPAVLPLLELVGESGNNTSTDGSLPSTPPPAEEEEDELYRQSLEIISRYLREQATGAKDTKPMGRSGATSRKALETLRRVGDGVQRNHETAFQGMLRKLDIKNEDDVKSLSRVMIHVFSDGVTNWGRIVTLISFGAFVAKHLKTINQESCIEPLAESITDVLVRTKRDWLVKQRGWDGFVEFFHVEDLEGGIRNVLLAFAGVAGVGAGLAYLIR
# H9c2 = experiment: cells; assay type: functional, cell-based; conditions: Rattus norvegicus, H9c2, Myocardium;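 further: confirmatory concentration-response retest of ultra-high-throughput screening hits for modulation of myocardial damage; cell death induced by hydrogen peroxide oxidative stress; compound pretreatment for 60 min then peroxide exposure for 2 h; potency is for protecting the cells against peroxide damage rather than for killing them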
# [9] = molecular target: Glyceraldehyde-3-phosphate dehydrogenase (Homo sapiens, UniProt P04406)
# Sequence of Glyceraldehyde-3-phosphate dehydrogenase (P04406 whole entry): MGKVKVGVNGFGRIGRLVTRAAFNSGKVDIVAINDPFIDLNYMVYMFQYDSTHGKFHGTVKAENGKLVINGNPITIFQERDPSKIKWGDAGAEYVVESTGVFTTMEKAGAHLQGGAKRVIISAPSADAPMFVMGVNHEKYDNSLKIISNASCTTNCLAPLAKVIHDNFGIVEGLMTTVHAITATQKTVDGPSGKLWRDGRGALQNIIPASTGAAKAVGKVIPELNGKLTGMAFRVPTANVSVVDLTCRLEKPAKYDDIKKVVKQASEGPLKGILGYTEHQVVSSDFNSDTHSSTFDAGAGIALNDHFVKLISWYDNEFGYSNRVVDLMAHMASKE
# [10] = HEp-2 cell cytotoxicity, dose response, cytotoxicity control for RSV inhibitor project, HTS (AID 2410); assay type: functional; conditions: human respiratory syncytial virus
# Streptococcus = experiment: Group A Streptococcus viability loss, dose response, counter-screen for streptokinase expression inhibitor project, luminescence, BacTiterGlo (AID 1915); assay type: functional, organism-based;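 further: potency for reduction of bacterial viability or growth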
# Cytochrome P450 2D6 = Cytochrome P450 2D6 (Homo sapiens, UniProt P10635);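 further: CYP2D6 member of a cytochrome P450 panel assay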
# Sequence of Cytochrome P450 2D6 (P10635 whole entry): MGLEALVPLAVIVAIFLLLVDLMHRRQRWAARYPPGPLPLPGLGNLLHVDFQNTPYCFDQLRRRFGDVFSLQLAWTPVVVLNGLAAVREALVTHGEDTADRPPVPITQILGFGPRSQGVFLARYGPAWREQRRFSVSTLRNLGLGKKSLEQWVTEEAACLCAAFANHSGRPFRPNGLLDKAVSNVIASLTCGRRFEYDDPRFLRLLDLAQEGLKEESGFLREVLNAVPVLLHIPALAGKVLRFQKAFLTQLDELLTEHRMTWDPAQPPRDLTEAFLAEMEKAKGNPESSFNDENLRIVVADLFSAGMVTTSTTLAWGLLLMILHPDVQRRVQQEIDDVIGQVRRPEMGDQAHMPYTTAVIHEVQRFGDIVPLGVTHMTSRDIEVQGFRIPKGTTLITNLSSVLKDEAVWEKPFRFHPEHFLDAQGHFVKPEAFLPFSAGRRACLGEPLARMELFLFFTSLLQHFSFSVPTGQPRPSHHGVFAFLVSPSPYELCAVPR
# [11] = system: Streptococcus sp. 'group A'; experiment: growth inhibition of control SK(-) GAS strain, dose response, counter-screen for streptokinase expression inhibitor project, luminescence, kanamycin, BacTiterGlo, confirmation (AID 1900); assay type: functional, organism-based
# Streptokinase A = molecular target: T3, Streptokinase A (Streptococcus pyogenes serotype M1, UniProt P10520); experiment: S. pyogenes streptokinase expression inhibitors, potency, dose response, plasminogen activation absorbance, OD405 (AID 1914); assay type: functional, Streptococcus pyogenes M1 GAS;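 further: secreted streptokinase activity via plasminogen activation per viability signal from cell pellet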
# T3 sequence (P10520 whole entry): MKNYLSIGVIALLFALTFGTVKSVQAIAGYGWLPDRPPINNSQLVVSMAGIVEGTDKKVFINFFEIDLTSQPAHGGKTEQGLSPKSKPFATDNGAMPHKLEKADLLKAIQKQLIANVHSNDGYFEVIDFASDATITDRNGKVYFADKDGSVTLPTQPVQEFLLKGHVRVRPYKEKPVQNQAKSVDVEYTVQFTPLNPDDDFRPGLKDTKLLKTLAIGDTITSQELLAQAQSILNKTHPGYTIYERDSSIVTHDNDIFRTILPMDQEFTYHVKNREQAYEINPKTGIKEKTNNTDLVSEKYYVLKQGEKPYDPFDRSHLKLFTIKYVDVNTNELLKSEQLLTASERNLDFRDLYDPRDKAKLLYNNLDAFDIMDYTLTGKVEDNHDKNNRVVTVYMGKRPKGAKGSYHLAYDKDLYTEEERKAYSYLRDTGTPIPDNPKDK
# BJ [12] = experiment: cytotoxicity toward BJ-TERT fibroblasts, dose response, cell-based, RAS-independent, luminescence (AID 1933); assay type: functional; conditions: Homo sapiens
# [13] = cytotoxicity toward DRD oncogenic fibroblasts, dose response, cell-based, non-viral oncogenic, luminescence (AID 1934); assay type: functional; conditions: Homo sapiens
# BJ [14] = experiment: cells; assay type: functional, cell-based; conditions: Homo sapiens
# BJ [15] = experiment: cytotoxicity toward BJ-TERT-LT-ST fibroblasts, dose response, cell-based, RAS-independent, luminescence (AID 1935); assay type: functional; conditions: Homo sapiens;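 further: BJ fibroblasts immortalized with TERT plus LT and ST oncogenes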
# [16] = molecular target: T4, Heat shock factor protein 1 (Mus musculus, UniProt P38532); experiment: HSF1 potentiators in luciferase reporter cells, confirmation, cell-based, NIH3T3, luminescence, dose retest (AID 435004); assay type: functional;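 further: stress induced by proteasome inhibitor MG132 added 30 min after compound; luciferase reporter driven by HSF1 response element in NIH3T3 cells; actives raise luminescence as potentiators of the MG132 stress response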
# T4 sequence (P38532 whole entry): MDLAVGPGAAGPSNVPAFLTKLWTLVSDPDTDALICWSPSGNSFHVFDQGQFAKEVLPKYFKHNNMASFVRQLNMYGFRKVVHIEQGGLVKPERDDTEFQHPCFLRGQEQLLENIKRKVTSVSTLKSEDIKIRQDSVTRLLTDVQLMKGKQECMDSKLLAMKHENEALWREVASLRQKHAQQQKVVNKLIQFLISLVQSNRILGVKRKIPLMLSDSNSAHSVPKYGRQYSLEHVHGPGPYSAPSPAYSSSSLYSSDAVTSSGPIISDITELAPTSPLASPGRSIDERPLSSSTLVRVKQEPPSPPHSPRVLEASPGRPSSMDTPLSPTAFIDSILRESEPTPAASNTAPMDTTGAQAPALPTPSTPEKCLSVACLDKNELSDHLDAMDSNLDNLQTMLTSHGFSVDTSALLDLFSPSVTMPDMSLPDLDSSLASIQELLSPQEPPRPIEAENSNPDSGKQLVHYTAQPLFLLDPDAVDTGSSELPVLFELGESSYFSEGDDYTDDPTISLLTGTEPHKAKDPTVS
structure (smiles),measurement,setting,value
Cc1cc(C(=O)COC(=O)c2ccc[nH]c2=O)c(C)n1C1CC1,IC50,Leucine aminopeptidase,13.3 µM (active)
O=C(NC(=S)NNS(=O)(=O)c1ccccc1)c1ccccc1[N+](=O)[O-],IC50,[1],> 66 µM (inactive)
same,IC50,[2],> 66 µM (inactive)
same,IC50,Leucine aminopeptidase,29.9 µM (active)
O=C(c1ccc(Cl)s1)N1CCN(c2nc3ccccc3s2)CC1,AC50,[3],55.7 µM (active)
same,AC50,[4],11.9 µM (active)
COC(=O)c1ccccc1NC(=S)NC(=O)c1ccc2c(c1)OCO2,IC50,[1],> 66 µM (inactive)
same,IC50,[2],> 66 µM (inactive)
CC(C)c1ccc2[nH]c(O)c(N=NC(=O)c3cccc(S(=O)(=O)Nc4ccc(Cl)cc4)c3)c2c1,EC50,[5],> 120 µM (not active)
same,EC50,[6],> 120 µM (not active)
same,EC50,[7],> 120 µM (not active)
Cc1cc2nc(-c3ccc(SCC(=O)N4CCN(C(=O)c5ccco5)CC4)nc3)[nH]c2cc1C,IC50,[8],3.63 µM (active)
O=C(Cc1ccc(N2CCNC2=O)cc1)N1CCCC(Nc2cccc(F)c2)C1 (stereo not given),EC50,[5],9.37 µM (inconclusive)
same,EC50,[6],5.11 µM (active)
same,EC50,[7],2.72 µM (active)
CC1CCN(c2ccccc2NC(=S)NC(=O)c2ccco2)CC1,IC50,[1],> 66 µM (inactive)
same,IC50,[2],> 66 µM (inactive)
CCOc1ccc(NC(=O)CSc2nnnn2CC(=O)O)cc1,IC50,Leucine aminopeptidase,6.69 µM (active)
O=C(O)CCCCCN1C(=O)/C(=C\c2ccc(-c3ccc(Cl)cc3)o2)SC1=S,IC50,[8],1.27 µM (active)
O=C(CSc1nnc(-c2cccnc2)n1Cc1ccco1)c1ccccc1,IC50,H9c2,32.4 µM (inactive)
COc1cccc(N2CCN(C3=C(Cl)C(=O)N(c4ccc([N+](=O)[O-])cc4)C3=O)CC2)c1,IC50,[9],> 50 µM (inconclusive)
COC(=O)c1sc(=S)n(-c2cc(F)ccc2F)c1N,IC50,[1],> 66 µM (inactive)
same,IC50,[2],> 66 µM (inactive)
O=C(Cn1nnc2ccccc2c1=O)Nc1ccc2c(c1)CCC2,IC50,Leucine aminopeptidase,1.51 µM (active)
Oc1nc2cccc(F)c2n2cccc12,IC50,H9c2,> 79 µM (inactive)
same,CC50,[10],30 µM (active)
CCCCC1CCC(c2nc(-c3ccccn3)no2)CC1 (stereo not given),EC50,[5],9.12 µM (inconclusive)
same,EC50,Streptococcus,21 µM (active)
same,AC50,Cytochrome P450 2D6,25.1 µM (inconclusive)
same,EC50,[11],16.1 µM (active)
same,EC50,Streptokinase A,> 150 µM (not active)
same,EC50,[6],2.95 µM (active)
same,EC50,[7],> 60 µM (not active)
Cc1ccc(NC(=O)CCc2c[nH]c3ccccc23)nc1,EC50,BJ [12],12.6 µM (active)
same,EC50,[13],17.7 µM (active)
same,EC50,BJ [14],50.4 µM (active)
same,EC50,BJ [15],> 150 µM (inconclusive)
CCCCCc1ccc(C(=O)CCCC)c(S)n1,IC50,[1],> 66 µM (inactive)
same,IC50,[2],> 66 µM (inactive)
Cc1ccc(N(Cc2ccc(C(=O)Nc3ccccc3C(=O)NCc3ccco3)cc2)S(C)(=O)=O)cc1C,EC50,[5],17.5 µM (active)
same,EC50,[16],> 260 µM (inactive)
same,EC50,[6],22.9 µM (active)
same,EC50,[7],> 120 µM (not active)
CCCCn1nc(NC(=O)c2cccs2)c2cc3ccccc3nc21,IC50,H9c2,> 79 µM (inactive)
same,CC50,[10],25.5 µM (active)
COc1cc(/C=C2\N=C(c3ccccc3)NNC2=O)cc(OC)c1OC,EC50,[5],> 120 µM (not active)
same,EC50,[6],8.22 µM (active)
same,EC50,[7],9.91 µM (active)
O=C(Nc1nnc(C2CC2)s1)c1cc(-c2ccccc2)nn1-c1ccccc1,IC50,H9c2,12.3 µM (active)
same,EC50,Streptococcus,20.8 µM (active)
same,EC50,[11],10.1 µM (active)
same,CC50,[10],13.1 µM (active)
same,EC50,Streptokinase A,8.32 µM (active)
O=C1CCCC(=O)C1=NNc1ccc2ncsc2c1,IC50,[1],> 66 µM (inactive)
same,IC50,[2],> 66 µM (inactive)
CC(C)Oc1ccc(C(=O)NC2(C(F)(F)F)N=C3SCCN3C2=O)cc1 (stereo not given),IC50,[1],> 66 µM (inactive)
same,IC50,[2],> 66 µM (inactive)
O=C(CN1C(=O)c2ccccc2S1(=O)=O)N1CCc2ccccc2C1,EC50,[5],25.5 µM (active)
same,EC50,[6],12.6 µM (active)
same,EC50,[7],21.4 µM (active)
C/C(=N\NC(=O)c1ccccc1-n1cccc1)c1ccccn1,IC50,H9c2,38.8 µM (inactive)
O=C(O)c1ccc(N/N=C/C2=C(N3CCOCC3)C(=C\c3ccccc3)/CC2)cc1,IC50,[8],4.44 µM (active)
COC(=O)/C(=C(O)\C=C\c1ccccc1[N+](=O)[O-])c1nc2ccccc2[nH]1,IC50,H9c2,> 79 µM (inactive)
CC(/C=N/NC(=O)c1cc(-c2ccc(Cl)cc2)nc2ccccc12)=C\c1ccco1,EC50,BJ [12],2.07 µM (active)
same,EC50,[13],2.58 µM (inconclusive)
same,EC50,BJ [14],2.73 µM (active)
same,EC50,BJ [15],22.4 µM (inconclusive)
C[C@H](CO)N1C[C@H](C)[C@H](CN(C)S(=O)(=O)c2cccs2)Oc2ccc(NC(=O)Cc3cn(C)c4ccccc34)cc2CC1=O,AC50,[3],0.883 µM (active)
same,AC50,[4],12.5 µM (active)
COc1cccc(Nc2ncnc3[nH]cnc23)c1,IC50,Leucine aminopeptidase,95.1 µM (active)
